Assay results taken from PubChem BioAssay AID328 (DTP/NCI, 2004).
Where “and” joins values, the source holds several entries; their conditions need not be identical. Equal values may be shown once. Inconclusive results and toxic doses are left out.

Test system: BDF1 mice, P388 leukemia ip, median survival T/C
Experiment: NCI In Vivo Anticancer Drug Screen. Data for tumor model P388 Leukemia (intraperitoneal) in B6D2F1 (BDF1) mice
Conditions: endpoint: median survival time, higher = longer survival
How it was run: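 Compound-treated tumour-bearing mice were compared with vehicle-treated controls. Survival was recorded, and the value is the treated-group measurement divided by the control-group measurement (T/C).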

[1] = dose: 100.0 mg/kg/injection, schedule: Q01DX009 (ip), vehicle: Klucel (hydroxypropylcellulose) (HPC)
[2] = dose: 100.0 mg/kg/injection, schedule: Q04DX003 (ip), vehicle: Klucel (hydroxypropylcellulose) (HPC)
[3] = dose: 200.0 mg/kg/injection, schedule: Q04DX003 (ip), vehicle: Klucel (hydroxypropylcellulose) (HPC)
[4] = dose: 400.0 mg/kg/injection, schedule: Q04DX003 (ip), vehicle: Klucel (hydroxypropylcellulose) (HPC)
[5] = dose: 100.0 mg/kg/injection, schedule: Q01DX001 (ip), vehicle: saline with Tween-80
[6] = dose: 200.0 mg/kg/injection, schedule: Q01DX001 (ip), vehicle: saline with Tween-80
[7] = dose: 12.5 mg/kg/injection, schedule: Q01DX009 (ip), vehicle: saline
[8] = dose: 25.0 mg/kg/injection, schedule: Q01DX009 (ip), vehicle: saline
[9] = dose: 100.0 mg/kg/injection, schedule: Q01DX009 (ip), vehicle: saline with Tween-80
[10] = dose: 200.0 mg/kg/injection, schedule: Q01DX009 (ip), vehicle: saline with Tween-80
[11] = dose: 6.25 mg/kg/injection, schedule: Q04DX003 (ip), vehicle: saline
[12] = dose: 12.5 mg/kg/injection, schedule: Q04DX003 (ip), vehicle: saline
[13] = dose: 25.0 mg/kg/injection, schedule: Q04DX003 (ip), vehicle: saline

CC1(C)CC(C)(c2ccccc2)c2ccccc21 (centres undefined)
T/C [1]: 120 % of control
T/C (dose: 100.0 mg/kg/injection, schedule: Q04DX003 (ip), vehicle: other): 109 % of control
T/C (dose: 132.0 mg/kg/injection, schedule: Q01DX009 (ip), vehicle: Klucel (hydroxypropylcellulose) (HPC)): 90 % of control
T/C (dose: 200.0 mg/kg/injection, schedule: Q04DX003 (ip), vehicle: other): 114 % of control
T/C (dose: 300.0 mg/kg/injection, schedule: Q01DX009 (ip), vehicle: Klucel (hydroxypropylcellulose) (HPC)): 100 % of control
T/C (dose: 400.0 mg/kg/injection, schedule: Q04DX003 (ip), vehicle: other): 104 % of control

CC(=O)NNc1ccc([N+](=O)[O-])cc1
T/C [1]: 100 % of control
T/C [2]: 105 % of control
T/C (dose: 200.0 mg/kg/injection, schedule: Q01DX009 (ip), vehicle: Klucel (hydroxypropylcellulose) (HPC)): 90 % of control
T/C [3]: 90 % of control
T/C (dose: 400.0 mg/kg/injection, schedule: Q01DX009 (ip), vehicle: Klucel (hydroxypropylcellulose) (HPC)): 90 % of control
T/C [4]: 90 % of control

CC(C)c1ccc(NC(=O)Nc2cccc3ccccc23)cc1
T/C (dose: 50.0 mg/kg/injection, schedule: Q01DX001 (ip), vehicle: saline with Tween-80): 95 % of control
T/C [5]: 109 % of control
T/C [6]: 100 % of control

COC(/C=C\C(OC)OC)OC
T/C (dose: 4.1 mg/kg/injection, schedule: Q01DX009 (ip), vehicle: saline): 109 % of control
T/C (dose: 4.17 mg/kg/injection, schedule: Q01DX009 (ip), vehicle: saline): 100 % of control
T/C (dose: 6.25 mg/kg/injection, schedule: Q01DX009 (ip), vehicle: saline): 100 % of control and 122 % of control
T/C (dose: 9.3 mg/kg/injection, schedule: Q01DX009 (ip), vehicle: saline): 122 % of control
T/C (dose: 9.37 mg/kg/injection, schedule: Q01DX009 (ip), vehicle: saline): 95 % of control
T/C [7]: 112 % of control
T/C (dose: 18.75 mg/kg/injection, schedule: Q04DX003 (ip), vehicle: saline): 110 % of control
T/C [8]: 112 % of control
T/C (dose: 37.5 mg/kg/injection, schedule: Q04DX003 (ip), vehicle: saline): 105 % of control

CC1(C)c2c3ccccc3cc3cccc(c23)[S+]1c1ccccc1 (centres undefined)
T/C (dose: 10.0 mg/kg/injection, schedule: Q01DX009 (ip), vehicle: saline with Tween-80): 120 % of control

CCOC(=O)Cc1csc2nc(-c3ccccc3)nn12
T/C (dose: 50.0 mg/kg/injection, schedule: Q01DX009 (ip), vehicle: saline with Tween-80): 106 % of control
T/C [9]: 108 % of control
T/C [10]: 115 % of control

COc1ccc(-c2c(C)c(C(=O)O)nc(-c3ccc4c(O)c(OC)c5c(c4n3)=NC(C)(C)N=5)c2N)c(O)c1OC
T/C (dose: 1.0 mg/kg/injection, schedule: Q01DX010 (ip), vehicle: other): 90 % of control
T/C (dose: 2.0 mg/kg/injection, schedule: Q01DX010 (ip), vehicle: other): 118 % of control
T/C (dose: 4.0 mg/kg/injection, schedule: Q01DX010 (ip), vehicle: other): 118 % of control
T/C (dose: 5.0 mg/kg/injection, schedule: Q01DX010 (ip), vehicle: water): 100 % of control
T/C (dose: 10.0 mg/kg/injection, schedule: Q01DX010 (ip), vehicle: water): 95 % of control

CC(=O)OC(c1nc2ccccc2c(=O)n1C1CC2(OC1=O)c1ccccc1N1C(=O)C(C)N(O)C12)C(C)C (centres undefined)
T/C (dose: 4.0 mg/kg/injection, schedule: Q01DX009 (ip), vehicle: Klucel (hydroxypropylcellulose) (HPC)): 93 % of control
T/C (dose: 8.0 mg/kg/injection, schedule: Q01DX009 (ip), vehicle: Klucel (hydroxypropylcellulose) (HPC)): 101 % of control
T/C (dose: 16.0 mg/kg/injection, schedule: Q01DX009 (ip), vehicle: Klucel (hydroxypropylcellulose) (HPC)): 110 % of control
T/C (dose: 32.0 mg/kg/injection, schedule: Q01DX009 (ip), vehicle: Klucel (hydroxypropylcellulose) (HPC)): 100 % of control

c1cc[c]([Pb]([c]2ccccc2)([c]2ccccc2)[n]2c3ccccc3c3ccccc32)cc1
T/C (dose: 0.19 mg/kg/injection, schedule: Q01DX009 (ip), vehicle: saline): 90 % of control
T/C (dose: 0.39 mg/kg/injection, schedule: Q01DX009 (ip), vehicle: saline): 100 % of control
T/C (dose: 0.78 mg/kg/injection, schedule: Q01DX009 (ip), vehicle: saline): 95 % of control
T/C (dose: 1.56 mg/kg/injection, schedule: Q01DX009 (ip), vehicle: saline): 100 % of control
T/C (dose: 3.0 mg/kg/injection, schedule: Q04DX003 (ip), vehicle: saline): 112 % of control
T/C (dose: 4.12 mg/kg/injection, schedule: Q01DX009 (ip), vehicle: saline): 100 % of control
T/C (dose: 6.0 mg/kg/injection, schedule: Q04DX003 (ip), vehicle: saline): 116 % of control
T/C (dose: 12.0 mg/kg/injection, schedule: Q04DX003 (ip), vehicle: saline): 104 % of control

Cc1ccc(C(SCC(N)C(=O)O)(c2ccccc2)c2ccccc2)cc1 (centres undefined)
T/C (dose: 132.0 mg/kg/injection, schedule: Q04DX003 (ip), vehicle: saline with Tween-80): 260 % of control
T/C (dose: 200.0 mg/kg/injection, schedule: Q04DX003 (ip), vehicle: saline with Tween-80): 260 % of control
T/C (dose: 300.0 mg/kg/injection, schedule: Q04DX003 (ip), vehicle: saline with Tween-80): 95 % of control

Cc1[nH][nH]c(=O)c1N=O
T/C (dose: 18.75 mg/kg/injection, schedule: Q01DX009 (ip), vehicle: saline with Tween-80): 92 % of control
T/C (dose: 37.5 mg/kg/injection, schedule: Q01DX009 (ip), vehicle: saline with Tween-80): 99 % of control
T/C (dose: 75.0 mg/kg/injection, schedule: Q01DX009 (ip), vehicle: saline with Tween-80): 99 % of control

COC(OC)C(=O)/C=C/C(C)COC1CCCCO1 (centres undefined)
T/C (dose: 50.0 mg/kg/injection, schedule: Q04DX003 (ip), vehicle: Klucel (hydroxypropylcellulose) (HPC)): 113 % of control
T/C [2]: 118 % of control
T/C [3]: 109 % of control

N=C(N)c1ccc(OCCCOc2ccc(C(=N)N)cc2Br)c(Br)c1
T/C (dose: 2.2 mg/kg/injection, schedule: Q01DX009 (ip), vehicle: saline): 100 % of control
T/C (dose: 3.3 mg/kg/injection, schedule: Q01DX009 (ip), vehicle: saline): 118 % of control
T/C (dose: 5.0 mg/kg/injection, schedule: Q01DX009 (ip), vehicle: saline): 118 % of control
T/C (dose: 25.0 mg/kg/injection, schedule: Q01DX009 (ip), vehicle: saline sonified): 122 % of control

CCN(CC)CCCNc1c(OC)cc(C)c2sc3ccccc3c(=O)c12
T/C [7]: 93 % of control
T/C [8]: 108 % of control
T/C (dose: 50.0 mg/kg/injection, schedule: Q01DX009 (ip), vehicle: saline): 112 % of control

O=S(=O)(Nc1ccc(NS(=O)(=O)c2ccccc2)nc1)c1ccccc1
T/C [2]: 100 % of control
T/C [3]: 104 % of control
T/C [4]: 100 % of control

COc1cc(/C=N\N=C\c2ccc(O)c(OC)c2)ccc1O
T/C [5]: 100 % of control
T/C [6]: 104 % of control
T/C (dose: 400.0 mg/kg/injection, schedule: Q01DX001 (ip), vehicle: saline with Tween-80): 100 % of control

O=C(CBr)c1cccnc1
T/C [11]: 104 % of control
T/C [12]: 104 % of control
T/C [13]: 95 % of control

CCC1C/C(=C\NC(N)=O)C(=O)O1 (centres undefined)
T/C (dose: 6.25 mg/kg/injection, schedule: Q04DX003 (ip), vehicle: saline with Tween-80): 96 % of control
T/C (dose: 12.5 mg/kg/injection, schedule: Q04DX003 (ip), vehicle: saline with Tween-80): 111 % of control
T/C (dose: 25.0 mg/kg/injection, schedule: Q04DX003 (ip), vehicle: saline with Tween-80): 104 % of control
T/C (dose: 50.0 mg/kg/injection, schedule: Q04DX003 (ip), vehicle: saline with Tween-80): 104 % of control
T/C (dose: 400.0 mg/kg/injection, schedule: Q04DX003 (ip), vehicle: saline with Tween-80): 86 % of control

OCc1ccccc1
T/C [9]: 95 % of control
T/C [10]: 104 % of control
T/C (dose: 400.0 mg/kg/injection, schedule: Q01DX009 (ip), vehicle: saline with Tween-80): 108 % of control

CN1C=c2c3c(ccc2=C2C=CC4C=C5OCOC5=CC4=C21)OCO3 (centres undefined)
T/C (dose: 5.0 mg/kg/injection, schedule: Q01DX010 (ip), vehicle: saline): 110 % of control
T/C [11]: 100 % of control
T/C (dose: 10.0 mg/kg/injection, schedule: Q01DX010 (ip), vehicle: saline): 100 % of control
T/C [12]: 100 % of control
T/C (dose: 20.0 mg/kg/injection, schedule: Q01DX010 (ip), vehicle: saline): 105 % of control
T/C [13]: 109 % of control
